Source: patent publication US12338262B2 (Forward Therapeutics, Inc., priority 2022, dated 2025)

Target: TNF-α (Homo sapiens, UniProt P01375)
Test: TNF-α Induced HEK Blue Cellular Assay
Assay type: cell-based
Settings: HEK Blue TNFα reporter cells, TNF-α 100 pg/ml, 24 hrs at 37° C., secreted alkaline phosphatase (QUANTI-Blue, 620 nm)
Summary of the method: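 HEK Blue TNFα reporter cells (10,000/well, DMEM + 10% FBS) treated with compound ([…] to 0.5 nM final) and stimulated with 100 pg/ml TNF-α for 24 h at 37 °C. Secreted alkaline phosphatase read with QUANTI-Blue at 620 nm; IC50 by 4-parameter logistic fit after background correction to stimulated/unstimulated DMSO controls.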

Chain of TNF-α (P01375 77-233 limits assumed): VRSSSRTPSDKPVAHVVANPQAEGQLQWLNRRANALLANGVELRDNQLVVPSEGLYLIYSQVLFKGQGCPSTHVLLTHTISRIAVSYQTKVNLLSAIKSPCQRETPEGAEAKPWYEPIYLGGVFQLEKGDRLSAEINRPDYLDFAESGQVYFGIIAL

IC50 [nM] | Compound
10000 to 30000 | Cc1nc2cc(F)c(-c3ccc(P(C)(C)=O)nc3)nc2c(N[C@H](C)c2c(F)ccc(F)c2F)c1Cl [Example 89, 3-chloro-6-[6-(dimethylphosphoryl)pyridin-3-yl]-7-fluoro-2-methyl-N-[(1R)-1-(2,3,6-trifluorophenyl)ethyl]-1,5-naphthyridin-4-amine]
≤ 100 | Cc1nc2cc(F)c(-c3ccc(P(C)(C)=O)nc3)nc2c(N[C@H](C)c2ccccc2)c1Cl [Example 90, 3-chloro-6-[6-(dimethylphosphoryl)pyridin-3-yl]-7-fluoro-2-methyl-N-[(1R)-1-phenylethyl]-1,5-naphthyridin-4-amine]
≤ 100 | Cc1nc2cc(F)c(-c3ccc(P(C)(C)=O)nc3)nc2c(N[C@H](C)c2cccc(Cl)c2)c1Cl [Example 91, 3-chloro-N-[(1R)-1-(3-chlorophenyl)ethyl]-6-[6-(dimethylphosphoryl)pyridin-3-yl]-7-fluoro-2-methyl-1,5-naphthyridin-4-amine]
≤ 100 | Cc1nc2cc(F)c(-c3ccc(P(C)(C)=O)nc3)nc2c(N[C@H](C)c2cccc(C(F)F)c2)c1Cl [Example 92, 3-chloro-N-[(1R)-1-[3-(difluoromethyl)phenyl]ethyl]-6-[6-(dimethylphosphoryl)pyridin-3-yl]-7-fluoro-2-methyl-1,5-naphthyridin-4-amine]
≤ 100 | Cc1nc2cc(F)c(-c3ccc(P(C)(C)=O)nc3)nc2c(N[C@H](C)c2cccc(C(F)(F)F)c2)c1Cl [Example 93, 3-chloro-6-[6-(dimethylphosphoryl)pyridin-3-yl]-7-fluoro-2-methyl-N-[(1R)-1-[3-(trifluoromethyl)phenyl]ethyl]-1,5-naphthyridin-4-amine]
≤ 1000 | Cc1nc2cc(F)c(-c3ccc(P(C)(C)=O)nc3)nc2c(NC(C)c2ncccc2F)c1Cl (centres unmarked) [Example 94, 3-chloro-6-[6-(dimethylphosphoryl)pyridin-3-yl]-7-fluoro-N-[1-(3-fluoropyridin-2-yl)ethyl]-2-methyl-1,5-naphthyridin-4-amine]
≤ 100 | CC[C@@H](Nc1c(Cl)c(C)nc2cc(F)c(-c3ccc(P(C)(C)=O)nc3)nc12)c1cccc(F)c1F [Example 95, (R)-(5-(7-chloro-8-((1-(2,3-difluorophenyl)propyl)amino)-3-fluoro-6-methyl-1,5-naphthyridin-2-yl)pyridin-2-yl)dimethylphosphine oxide]
≤ 100 | CC[C@H](Nc1c(Cl)c(C)nc2cc(F)c(-c3ccc(P(C)(C)=O)nc3)nc12)c1cccc(F)c1F [Example 96, (S)-(5-(7-chloro-8-((1-(2,3-difluorophenyl)propyl)amino)-3-fluoro-6-methyl-1,5-naphthyridin-2-yl)pyridin-2-yl)dimethylphosphine oxide]
≤ 1000 | Cc1nc2cc(F)c(-c3ccc(P(C)(C)=O)nc3)c(F)c2c(NC(C)c2ncccc2F)c1Cl (centres unmarked) [Example 97, 3-chloro-6-[6-(dimethylphosphoryl)pyridin-3-yl]-5,7-difluoro-N-[1-(3-fluoropyridin-2-yl)ethyl]-2-methylquinolin-4-amine]
≤ 1000 | C#Cc1ccc(F)c([C@@H](C)Nc2c(Cl)c(C)nc3cc(F)c(-c4ccc(P(C)(C)=O)nc4)nc23)c1 [Example 98, 3-chloro-6-[6-(dimethylphosphoryl)pyridin-3-yl]-N-[(1R)-1-(5-ethynyl-2-fluorophenyl)ethyl]-7-fluoro-2-methyl-1,5-naphthyridin-4-amine]
≤ 1000 | Cc1nc2cc(F)c(-c3ccc(P(C)(C)=O)nc3)nc2c(N[C@H](C)c2cc(F)cc(C#N)c2)c1Cl [Example 99, 3-[(1R)-1-({3-chloro-6-[6-(dimethylphosphoryl)pyridin-3-yl]-7-fluoro-2-methyl-1,5-naphthyridin-4-yl}amino)ethyl]-5-fluorobenzonitrile]
≤ 1000 | CC[C@@H](Nc1c(Cl)c(C)nc2cc(F)c(-c3ccc(P(C)(C)=O)nc3)cc12)c1ncccc1F [Example 102, 3-chloro-6-[6-(dimethylphosphoryl)pyridin-3-yl]-7-fluoro-N-[(1R)-1-(3-fluoropyridin-2-yl)propyl]-2-methylquinolin-4-amine]
10000 to 30000 | Cc1nc2cc(F)c(-c3ccc(P4(=O)CCOCC4)nc3)cc2c(N[C@H](C)c2cccc(F)c2F)c1Cl [Example 103, 4-[5-(3-chloro-4-{[(1R)-1-(2,3-difluorophenyl)ethyl]amino}-7-fluoro-2-methylquinolin-6-yl)pyridin-2-yl]-1,4lambda5-oxaphosphinan-4-one]
≤ 1000 | CCC(Nc1c(Cl)c(C)nc2cc(F)c(-c3ccc(P(C)(C)=O)nc3)nc12)c1cnn(C)c1 (centres unmarked) [Example 104, 3-chloro-6-[6-(dimethylphosphoryl)pyridin-3-yl]-7-fluoro-2-methyl-N-[1-(1-methylpyrazol-4-yl)propyl]-1,5-naphthyridin-4-amine]

More lines, now with the values behind:

Compound | IC50 [nM]
CC[C@@H](Nc1c(Cl)c(C)nc2cc(F)c(-c3ccc(P(C)(C)=O)nc3)c(F)c12)c1ncccc1F [Example 74, (R)-(5-(3-chloro-5,7-difluoro-4-((1-(3-fluoropyridin-2-yl)propyl)amino)-2-methylquinolin-6-yl)pyridin-2-yl)dimethylphosphine oxide] | ≤ 1000
Cc1nc2cc(F)c(-c3ccc(P(C)(C)=O)nc3)nc2c(N[C@H](C)c2cccnc2)c1Cl [Example 75, 3-chloro-6-[6-(dimethylphosphoryl)pyridin-3-yl]-7-fluoro-2-methyl-N-[(1R)-1-(pyridin-3-yl)ethyl]-1,5-naphthyridin-4-amine] | ≤ 100
CC[C@H](Nc1c(Cl)c(C)nc2cc(F)c(-c3ccc(P(C)(C)=O)nc3)nc12)c1ccccn1 [Example 76, 3-chloro-6-[6-(dimethylphosphoryl)pyridin-3-yl]-7-fluoro-2-methyl-N-[(1S)-1-(pyridin-2-yl)propyl]-1,5-naphthyridin-4-amine] | ≤ 100
CC[C@@H](Nc1c(F)c(C)nc2cc(F)c(-c3ccc(P(C)(C)=O)nc3)nc12)c1ccccc1F [Example 77, 6-[6-(dimethylphosphoryl)pyridin-3-yl]-3,7-difluoro-N-[(1R)-1-(2-fluorophenyl)propyl]-2-methyl-1,5-naphthyridin-4-amine] | ≤ 1000
Cc1nc2cc(F)c(-c3ccc(P(C)(C)=O)nc3)nc2c(N[C@H](C)c2cccc(Cl)c2F)c1Cl [Example 78, 3-chloro-N-[(1R)-1-(3-chloro-2-fluorophenyl)ethyl]-6-[6-(dimethylphosphoryl)pyridin-3-yl]-7-fluoro-2-methyl-1,5-naphthyridin-4-amine] | ≤ 100
CC[C@@H](Nc1c(Cl)c(C)nc2cc(F)c(-c3ccc(P(C)(C)=O)nc3)nc12)c1ccccc1 [Example 79, 3-chloro-6-[6-(dimethylphosphoryl)pyridin-3-yl]-7-fluoro-2-methyl-N-[(1R)-1-phenylpropyl]-1,5-naphthyridin-4-amine] | ≤ 100
Cc1nc2cc(F)c(-c3ccc(P(C)(C)=O)nc3)nc2c(N[C@H](C)c2ccc(F)c(F)c2)c1Cl [Example 80, 3-chloro-N-[(1R)-1-(3,4-difluorophenyl)ethyl]-6-[6-(dimethylphosphoryl)pyridin-3-yl]-7-fluoro-2-methyl-1,5-naphthyridin-4-amine] | ≤ 1000
COc1cc([C@@H](C)Nc2c(Cl)c(C)nc3cc(F)c(-c4ccc(P(C)(C)=O)nc4)nc23)ccn1 [Example 81, 3-chloro-6-[6-(dimethylphosphoryl)pyridin-3-yl]-7-fluoro-N-[(1R)-1-(2-methoxypyridin-4-yl)ethyl]-2-methyl-1,5-naphthyridin-4-amine] | 10000 to 30000
CCC(Nc1c(Cl)c(C)nc2cc(F)c(-c3ccc(P(C)(C)=O)nc3)nc12)c1cccnc1 (centres unmarked) [Example 82, 3-chloro-6-[6-(dimethylphosphoryl)pyridin-3-yl]-7-fluoro-2-methyl-N-[1-(pyridin-3-yl)propyl]-1,5-naphthyridin-4-amine] | ≤ 100
Cc1nc2cc(F)c(-c3ccc(P(C)(C)=O)nc3)nc2c(N[C@H](C)c2ccccn2)c1Cl [Example 83, 3-chloro-6-[6-(dimethylphosphoryl)pyridin-3-yl]-7-fluoro-2-methyl-N-[(1R)-1-(pyridin-2-yl)ethyl]-1,5-naphthyridin-4-amine] | ≤ 1000
CC[C@@H](Nc1c(Cl)c(C)nc2cc(F)c(-c3ccc(P(C)(C)=O)nc3)nc12)c1ccccn1 [Example 84, 3-chloro-6-[6-(dimethylphosphoryl)pyridin-3-yl]-7-fluoro-2-methyl-N-[(1R)-1-(pyridin-2-yl)propyl]-1,5-naphthyridin-4-amine] | ≤ 1000
Cc1nc2cc(F)c(-c3ccc(P(C)(C)=O)nc3)nc2c(N[C@H](C)c2cc(F)cc(F)c2)c1Cl [Example 85, 3-chloro-N-[(1R)-1-(3,5-difluorophenyl)ethyl]-6-[6-(dimethylphosphoryl)pyridin-3-yl]-7-fluoro-2-methyl-1,5-naphthyridin-4-amine] | ≤ 1000
Cc1nc2cc(F)c(-c3ccc(P(C)(C)=O)nc3)nc2c(N[C@H](C)c2cccc(F)c2)c1Cl [Example 86, 3-chloro-6-[6-(dimethylphosphoryl)pyridin-3-yl]-7-fluoro-N-[(1R)-1-(3-fluorophenyl)ethyl]-2-methyl-1,5-naphthyridin-4-amine] | ≤ 100
Cc1nc2cc(F)c(-c3ccc(P(C)(C)=O)nc3)nc2c(N[C@H](C)c2ccccc2Cl)c1Cl [Example 87, 3-chloro-N-[(1R)-1-(2-chlorophenyl)ethyl]-6-[6-(dimethylphosphoryl)pyridin-3-yl]-7-fluoro-2-methyl-1,5-naphthyridin-4-amine] | 1000 to 10000
Cc1nc2cc(F)c(-c3ccc(P(C)(C)=O)nc3)nc2c(N[C@H](C)c2ccc(F)cc2F)c1Cl [Example 88, 3-chloro-N-[(1R)-1-(2,4-difluorophenyl)ethyl]-6-[6-(dimethylphosphoryl)pyridin-3-yl]-7-fluoro-2-methyl-1,5-naphthyridin-4-amine] | 10000 to 30000
